# Experimental data taken from US20240269155A1, “METHODS AND USES OF BORON COMPOUNDS IN THE TREATMENT OF NONTUBERCULOUS MYCOBACTERIUM INFECTIONS AND PHARMACEUTICAL COMPOSITIONS FOR TREATMENT OF SAME” (priority 2022, published 2024).
# Read-outs that look alike come from different tables or passages of the source.
# Assays:
# [1] = test system: M. intercelleulare; experiment: MIC determination (CLSI M24-A2); assay type: cell-based, Mycobacterium intercelleulare; settings: Mycobacterium, read-out: MIC
# Method: (§1) The in vitro activity of the parent boron compound described herein was assessed by standard testing procedures such as the determination of minimum inhibitory concentration (MIC) as described in Clinical and Laboratory Standards Institute (CLSI) document M24-A2. Lower MIC values indicate high antibacterial activity, while higher MIC values indicate a reduced antibacterial activity. Generally, MIC values of about ≤2 mg/L indicate a good therapeutic (i.e., suitable for therapy) potency for antibacterial drugs, while MIC values of ≥8 mg/L indicate a lack of therapeutically useful activity for a test compound.
# (§2) (MIC ranges from 0.063-2 mg/L).
# [2] = test system: M. peregrinum; experiment: MIC determination (CLSI M24-A2); assay type: cell-based, Mycobacterium peregrinum
# Method: as §1, §2
# [3] = test system: M. scrofulaceum; experiment: MIC determination (CLSI M24-A2); assay type: cell-based, Mycobacterium scrofulaceum; settings: Mycobacterium scrofulaceum, read-out: MIC
# Method: as §1, §2
# [4] = test system: M. smegmatis; experiment: MIC determination (CLSI M24-A2); assay type: cell-based, Mycobacterium smegmatis
# Method: as §1, §2
# [5] = test system: M. massiliense; experiment: MIC determination (CLSI M24-A2); assay type: cell-based, Mycobacterium massiliense; settings: Mycobacteroides abscessus, read-out: MIC
# Method: as §1, §2
# [6] = test system: M. fortuitum; experiment: MIC determination (CLSI M24-A2); assay type: cell-based, Mycobacterium fortuitum
# Method: as §1, §2
# [7] = test system: M. avium; experiment: MIC determination (CLSI M24-A2); assay type: cell-based, Mycobacterium avium; settings: Mycobacterium avium, read-out: MIC
# Method: as §1, §2
# [8] = test system: M. abscessus; experiment: MIC determination (CLSI M24-A2); assay type: cell-based, Mycobacterium abscessus; settings: Mycobacteroides abscessus, read-out: MIC
# Method: as §1, §2
# [9] = test system: Mycobacteria pathogens; experiment: MIC against mycobacteria pathogens, summary over species; assay type: cell-based, nontuberculous Mycobacterium
# [10] = test system: M. gordonae; experiment: MIC determination (CLSI M24-A2); assay type: cell-based, Mycobacterium gordonae; settings: Mycobacterium gordonae, read-out: MIC
# Method: as §1, §2
# [11] = Lung distribution study in mouse; assay type: in vivo, Balb/C mouse; settings: 10 mg/kg po
# [12] = test system: clinical isolates of M. abscessus complex; experiment: MBC against clinical isolates of M. abscessus complex; assay type: cell-based, M. abscessus and M. massiliense; settings: for Classification: from MBC/MIC ratio
# [13] = test system: clinical isolates of M. abscessus complex; experiment: MIC against clinical isolates of M. abscessus complex; assay type: cell-based, M. abscessus and M. massiliense; settings: Mycobacteroides abscessus, read-out: MIC
# [14] = Mycolicibacterium peregrinum, read-out: MIC
# [15] = Mycolicibacterium smegmatis, read-out: MIC
# [16] = Mycolicibacterium fortuitum, read-out: MIC
compound,measurement,setting,value
OB1OCc2cc(F)ccc21 [AN2690],MIC,[1],> 8 µg/mL
same,MIC,[2]; [14],> 8 µg/mL
same,MIC,[3],8 µg/mL
same,MIC,[4]; [15],> 8 µg/mL
same,MIC,[5],4 µg/mL
same,MIC,[6]; [16],> 8 µg/mL
same,MIC,[7],> 8 µg/mL
same,MIC,[8],> 8 µg/mL
same,activity against all NTM species tested,[9]; all NTM species tested,moderate or no activity
same,MIC,[10],8 µg/mL
"CC(C)C(=O)OC[C@H](COc1cccc2c1B(O)O[C@@H]2CN)OC(=O)C(C)C.Cl [Example 2, (2S)-1-{[(3S)-3-(Aminomethyl)-1-hydroxy-1,3-dihydrobenzo[2,1-c][1,2]oxaborol-7-yl]oxy}-3-[(2-methylpropanoyl)oxy]propan-2-yl 2-methylpropanoate hydrochloride]",AUClast,"[11]; analyte Example 2 (prodrug), lung",968 ng·h/g
same,conversion of prodrug to Example 4 in vivo,[11]; plasma,rapidly converted to Example 4
same,half-life,"[11]; Balb/C, analyte Example 2 (prodrug), lung",6.42 h
same,AUC(0-t),"[11]; Balb/C, analyte Example 2 (prodrug), plasma",0.0421 ng·h/mL
"Cl.NC[C@H]1OB(O)c2c(OCCO)ccc(Cl)c21 [GSK656, reference compound]",MIC,[1],> 8 µg/mL
same,MIC,[2],8 µg/mL
same,MIC,[2]; [14],≥ 8 µg/mL
same,MIC,[3],4 µg/mL
same,MIC,[4],>8 µg/mL
same,MIC,[4]; [15],≥ 8 µg/mL
same,MIC,[5],0.063 µg/mL
same,bactericidal/bacteriostatic classification over the isolates,[12]; 20 clinical isolates of M. abscessus complex,bacteriostatic against all isolates
same,MBC,"[12]; Mycobacteroides abscessus, clinical isolate A35, read-out: MBC",> 2 µg/mL
same,MBC,"[12]; Mycobacteroides abscessus, clinical isolate A51, read-out: MBC",> 2 µg/mL
same,MBC,"[12]; Mycobacteroides abscessus, clinical isolate A197, read-out: MBC",> 2 µg/mL
same,MBC,"[12]; Mycobacteroides abscessus, clinical isolate A213, read-out: MBC",2 µg/mL
same,MBC,"[12]; Mycobacteroides abscessus, clinical isolate A215, read-out: MBC",2 µg/mL
same,MBC,"[12]; Mycobacteroides abscessus, clinical isolate A217, read-out: MBC",2 µg/mL
same,MBC,"[12]; Mycobacteroides abscessus, clinical isolate A255, read-out: MBC",2 µg/mL
same,MBC,"[12]; Mycobacteroides abscessus, clinical isolate A268, read-out: MBC",> 4 µg/mL
same,MBC,"[12]; Mycobacteroides abscessus, clinical isolate A274, read-out: MBC",> 4 µg/mL
same,MBC,"[12]; Mycobacteroides abscessus, clinical isolate A311, read-out: MBC",1 µg/mL
same,MBC,"[12]; Mycobacteroides abscessus, clinical isolate A353, read-out: MBC",2 µg/mL
same,MBC,"[12]; Mycobacteroides abscessus, clinical isolate G73, read-out: MBC",> 2 µg/mL
same,MBC,"[12]; Mycobacteroides abscessus, clinical isolate G74, read-out: MBC",> 4 µg/mL
same,MBC,"[12]; Mycobacteroides abscessus, clinical isolate G87, read-out: MBC",> 2 µg/mL
same,MBC,"[12]; Mycobacteroides abscessus, clinical isolate G104, read-out: MBC",2 µg/mL
same,MBC,"[12]; Mycobacteroides abscessus, clinical isolate G110, read-out: MBC",> 2 µg/mL
same,MBC,"[12]; Mycobacteroides abscessus, clinical isolate G164, read-out: MBC",> 2 µg/mL
same,MBC,"[12]; Mycobacteroides abscessus, clinical isolate G182, read-out: MBC",> 2 µg/mL
same,Classification,[12]; clinical isolate A35,Bacteriostatic (bacteriostatic if the ratio was >4)
same,Classification,[12]; clinical isolate A51,Bacteriostatic (bacteriostatic if the ratio was >4)
same,Classification,[12]; clinical isolate A197,Bacteriostatic (bacteriostatic if the ratio was >4)
same,Classification,[12]; clinical isolate A213,Bacteriostatic (bacteriostatic if the ratio was >4)
same,Classification,[12]; clinical isolate A215,Bacteriostatic (bacteriostatic if the ratio was >4)
same,Classification,[12]; clinical isolate A217,Bacteriostatic (bacteriostatic if the ratio was >4)
same,MBC,[12]; clinical isolate A222,>>
same,Classification,[12]; clinical isolate A222,Bacteriostatic (bacteriostatic if the ratio was >4)
same,Classification,[12]; clinical isolate A232,Bacteriostatic (bacteriostatic if the ratio was >4)
same,Classification,[12]; clinical isolate A255,Bacteriostatic (bacteriostatic if the ratio was >4)
same,Classification,[12]; clinical isolate A268,Bacteriostatic (bacteriostatic if the ratio was >4)
same,Classification,[12]; clinical isolate A274,Bacteriostatic (bacteriostatic if the ratio was >4)
same,Classification,[12]; clinical isolate A311,Bacteriostatic (bacteriostatic if the ratio was >4)
same,Classification,[12]; clinical isolate A353,Bacteriostatic (bacteriostatic if the ratio was >4)
same,Classification,[12]; clinical isolate G73,Bacteriostatic (bacteriostatic if the ratio was >4)
same,Classification,[12]; clinical isolate G74,Bacteriostatic (bacteriostatic if the ratio was >4)
same,Classification,[12]; clinical isolate G87,Bacteriostatic (bacteriostatic if the ratio was >4)
same,Classification,[12]; clinical isolate G104,Bacteriostatic (bacteriostatic if the ratio was >4)
same,Classification,[12]; clinical isolate G110,Bacteriostatic (bacteriostatic if the ratio was >4)
same,Classification,[12]; clinical isolate G164,Bacteriostatic (bacteriostatic if the ratio was >4)
same,Classification,[12]; clinical isolate G182,Bacteriostatic (bacteriostatic if the ratio was >4)
same,MIC,[6],>8 µg/mL
same,MIC,[6]; [16],≥ 8 µg/mL
same,MIC,[7],> 8 µg/mL
same,MIC,[8],0.063 µg/mL
same,fold less active than Example 4 (MIC),"[9]; M. fortuitum, M. peregrinum, M. smegmatis",more than 64 fold
same,MIC,[13]; clinical isolate A35,0.063 µg/mL
same,MIC,[13]; clinical isolate A51,0.063 µg/mL
same,MIC,[13]; clinical isolate A197,0.063 µg/mL
same,MIC,[13]; clinical isolate A213,0.063 µg/mL
same,MIC,[13]; clinical isolate A215,0.063 µg/mL
same,MIC,[13]; clinical isolate A217,0.063 µg/mL
same,MIC,[13]; clinical isolate A222,0.063 µg/mL
same,MIC,[13]; clinical isolate A255,0.063 µg/mL
same,MIC,[13]; clinical isolate A268,0.125 µg/mL
same,MIC,[13]; clinical isolate A274,0.125 µg/mL
same,MIC,[13]; clinical isolate A311,0.063 µg/mL
same,MIC,[13]; clinical isolate A353,0.125 µg/mL
same,MIC,[13]; clinical isolate G73,0.063 µg/mL
same,MIC,[13]; clinical isolate G74,0.063 µg/mL
same,MIC,[13]; clinical isolate G87,0.063 µg/mL
same,MIC,[13]; clinical isolate G104,0.063 µg/mL
same,MIC,[13]; clinical isolate G110,0.063 µg/mL
same,MIC,[13]; clinical isolate G164,0.063 µg/mL
same,MIC,[13]; clinical isolate G182,0.063 µg/mL
same,MIC,[10],0.5 µg/mL
CC(C)C(=O)OC[C@H](COc1cccc2c1B(O)O[C@@H]2CN)OC(=O)C(C)C.Cl [drawing 20],MIC,[1],> 8 µg/mL
same,MIC,[7],> 8 µg/mL
same,MIC,[8],> 8 µg/mL
